Experiments:
[1] = system: IL-6; test: Ex vivo LPS-stimulated human whole blood, IL-6 production; assay type: cell-based; details: mean values
Protocol: Venous blood from human donors was collected as 10 ml aliquots in tubes containing sodium heparin (BD Vacutainer from Becton Dickinson and Company, Franklin Lakes, NY). Blood was added to sterile polystyrene round bottom 96-well tissue culture plates (Corning Costar) at 100 µl/well, omitting the outside wells. Media (RPMI Medium 1640 with L-glutamine, Invitrogen Corporation, Carlsbad, CA) was added to the blood in 90 µl aliquots for a total volume of 190 µl. Outside wells were filled with 200 µl of media. Blood was placed in a humidified 37°C incubator with 5% CO2 while compounds were prepared (nearly 60 minutes).
Compounds were prepared from 10 mM stock solutions in dimethylsulfoxide (DMSO, Sigma-Aldrich). […] Final DMSO and ethanol concentrations in the assay were 0.1 % and 1.5%. The samples were gently triturated twice to mix and replaced in the incubator. LPS stock (E. coli serotype 0111:B4, Sigma-Aldrich), stored in aliquots of 100 µg/ml in RPMI at -20°C, was diluted 1/50 in RPMI to make a working stock solution. After 60 minutes of incubation, 10 µl of the prepared LPS working stock was added to the blood to a final concentration of 100 ng/ml, omitting wells to be used as negative control. The samples were again gently triturated and the plates incubated overnight for 22 hours. Following incubation, the blood was centrifuged at 1500 x g for 5 minutes and the plasma removed to either freeze at -20°C or assay for cytokine release.
IL-1β, IFNγ,IL-6, and TNFα protein levels were measured using Meso Scale assay kits (Meso Scale Discovery, Gaithersburg, MD). Reagents were allowed to come to room temperature. Meso Scale plates were blocked with 30 µl of human plasma/serum assay diluent with gentle shaking for 60 minutes at room temperature. Plates were washed 3x with wash buffer (PBS, Invitrogen Corporation, with 0.05% Tween-20, Sigma-Aldrich). Calibrators for standard curves were prepared in human plasma/serum assay diluent as a 1/5 serial dilution to achieve final concentrations ranging from 50000 pg/ml to 3.2 pg/ml. Samples and calibrators were added at 20 µl/well, then incubated at room temperature with gentle shaking for 90 minutes. Plates were again washed 3 times with wash buffer. Detection antibody was diluted in human plasma/serum antibody diluent to 1 µg/ml and added to the plate at 20 µl/well. Plates were incubated as before for 60 minutes and washed again. Read Buffer T (4x) was diluted 1:1 with mqH2O to 2 times concentration and 150 µl added to each well. Plates were analyzed on the SECTOR Imager 6000 (Meso Scale Discovery) to generate raw signal values.
Individual values were compared to positive and negative controls (vehicle treated blood with LPS and vehicle treated blood without LPS, respectively) to generate % inhibition. Triplicate values were averaged for each donor. The values for two donors were averaged (only one donor was used for IL-1β) and graphed using 4-parameter fit curves in the GraFit 5.0.11 application.

[2] = Cortical bone histomorphometry to determine bone formation rate (BFR); assay type: in vivo, mice
Protocol: Calcein incorporates into the bone mineral and allows measurement of bone formation rate. Calcein was dissolved in 2% sodium bicarbonate. During the tissue harvest, the left tibiae were excised and cleaned for cortical histomorphometry measurements. After all skin and muscle were removed, tibiae were placed in 70% ethanol (4°C) in the dark for a minimum of 24 hours.
Ground transverse sections were used for histomorphometric analysis of cortical bone. Bones were sectioned using a low-speed saw (Isomet, Buehler, Lake Bluff, IL) equipped with a diamond wafer blade. The end of each tibia was removed proximal to tibia-fibula synostosis and a […] cross-section was cut. Using a roughened glass plate and a cork, sections were ground to […] until transparent and all labels were distinguishable under a fluorescent microscope. […] Using the Osteomeasure Bone Analysis Program (Osteometrics, Inc., Decatur, Georgia), bone formation rate was calculated by tracing the 1^s1 and 3rd fluorescent labels and the inner and outer perimeter of the bone. Bone formation rate was calculated by the following equation: (Inter-label width/Label interval) * (Labeled perimeter/Bone perimeter). At least five samples were measured from each treatment group in each study.

[3] = system: TNFα; test: LPS-induced serum TNFα suppression, 28-day repeat dose mouse model; assay type: in vivo, Swiss Webster female mice
Protocol: The compounds were weighed and suspended in a vehicle of 0.5% methylcellulose/0.025% tween 20 (Sigma-Aldrich, St. Louis, MO). Compound suspensions were homogenized using a Polytron PT-3100 tissue homogenizer to create a very fine suspension and were then sonicated for 10 minutes using a water bath sonicator. Aliquots of each suspension were made for daily dosing at 0.2 ml/dose. Swiss Webster female mice, 10-12 weeks old, 28-29 grams, (Taconic, Germantown, NY) were used in accordance with the guidelines of the Institutional Animal Care and Use Committee and in accordance with NIH guidelines on laboratory animal welfare. Mice were acclimated in the Pfizer animal facility for three to seven days prior to being utilized in a study. […] Each treatment group contained 5-10 mice. To establish a dosing regimen for the studies, a pilot pharmacodynamic time course experiment was conducted to quantify TNFα repression after a single ED80 dose.
Body weights were measured on the first and last day of each experiment. Blood samples were obtained after three weeks of dosing for a steady-state pharmacokinetic (PK) analysis. To assess compound effects on LPS-induced TNFα, all mice received an intraperitoneal injection of LPS (Salmonella typhosa, L-7895; Sigma-Aldrich, St. Louis,) 2.5 hr after the last dose on day 28. Mice were sacrificed 90 minutes after LPS administration. Serum samples were quantified for osteocalcin and TNFα using the multiplex assays (Linco Research, Inc, St. Charles, MO; Luminex 100, Austin, TX). Samples were diluted 1:20 and the assay was run according to manufacturer's instructions. The osteocalcin standard was purchased separately (Biomedical Technologies Inc., Stoughton, MA). Mice were fasted for 4 hours before serum was collected for TNFα, and osteocalcin levels. For each experiment, outliers were detected by calculating the number of standard deviations from the mean of the group. If the value being examined was more than 2.5 standard deviations from the mean, it was excluded from the rest of the calculations.
The individual mouse percent inhibition values were fit to a four-parameter logistic model using the dose mean for each group.
ED50 and ED80 values were obtained for the various endpoints using a four-parameter logistic fit. For compounds which were tested multiple times, ED50 and ED80 values were obtained using four-parameter logistic fits of the combined data from multiple experiments.

## Cc1ncccc1NC(=O)c1ccc2c(c1)CC[C@@H]1C[C@@](O)(C(F)(F)F)CC[C@@]21Cc1ccccc1 [Example 1, (4βS,7R,8αR)-4β-benzyl-7-hydroxy-N-(2-methylpyridin-3-yl)-7-(trifluoromethyl)-4β,5,6,7,8,8α,9,10-octahydrophenanthrene-2-carboxamide]
[1]; 0.457247 nM
  inhibition at 0.000457247 µM: -1.37%
[1]; 1.371742 nM
  inhibition at 0.00137174 µM: 3.33%
[1]; 4.115226 nM
  inhibition at 0.00411523 µM: -1.07%
[1]; 12.34568 nM
  inhibition at 0.0123457 µM: -0.369%
[1]; 37.03704 nM
  inhibition at 0.037037 µM: -0.828%
[1]; 111.1111 nM
  inhibition at 0.111111 µM: 0.944%
[1]; 333.3333 nM
  inhibition at 0.333333 µM: 2.15%
[1]; 1000 nM
  inhibition at 1 µM: 8.05%
[2]; data set 2
  Cortical bone formation rate (BFR) EAUC50: 0.35
  Cortical bone formation rate (BFR) EAUC80: 1.76
[2]; mice
  Cortical bone formation rate (BFR) EAUC50 (AUC 0-4 hr): 0.27 µg·h/mL
  Cortical bone formation rate (BFR) EAUC80 (AUC 0-4 hr): 1.55 µg·h/mL
[3]; Mus musculus, 672 h, oral gavage, 28 days, LPS-induced serum TNFα
  ED50: 0.46 mg/kg
[3]; Mus musculus, 672 h, oral gavage, 28 days, LPS-induced serum TNFα, read-out: TNFα Suppression (ED80 dose)
  ED80: 1.82 mg/kg
[3]; mice
  Serum TNFα EAUC50 (AUC 0-4 hr): 0.22 µg·h/mL
  Serum TNFα EAUC80 (AUC 0-4 hr): 0.33 µg·h/mL

Source: patent publication EP2114888B1, “TRICYCLIC COMPOUNDS AND THEIR USE AS GLUCOCORTICOID RECEPTOR MODULATORS” (priority 2007, dated 2008)
